We go through 1 compound from US7160690B2, “Nitrate sensor” (Arete Associates, priority 2001, dated 2007).

The subject of one test is FAD. As to conditions: 0 to 20 ppm nitrate; FIG. 10, data line 38. The procedure: (§1) To further investigate the quenching of Mo-MPT 10 by nitrate 30, a comparison study was performed comparing quenching of Mo-MPT 10 versus FAD 14 by nitrate 30. […] The data line labeled 38 represents quenching of FAD 14, while the data line labeled 40 represents quenching of Mo-MPT 10.
Test [1] deals with molybdenum-molybdopterin (Mo-MPT) center of nitrate reductase. As to conditions: for lowest nitrate concentration at which quenching of the emission signal is observed: FIG. 8. The procedure:
Instead, the biosensor method of this invention uses fluorescence detection to sense nitrate 30 levels.
Once the Mo-MPT 10 is obtained, its initial fluorescence signal is measured.
The quenched fluorescence (Q) is a function of the maximum possible quenching at an infinite nitrate concentration (Qmax) and the affinity of nitrate for its binding site (Kd) in the vicinity of its binding site, or Mo-MPT 10. Thus, it follows Q=(Q max [nitrate])/(Kd+[nitrate]) where: • Q is the quenched fluorescence; • Qmax is maximal quenching at infinite concentration of nitrate; and • Kd is nitrate affinity for the binding site. Quenching can also be considered in terms of: F=Fo−Q where: • F is the fluorescence in the presence of nitrate; • Fo is the fluorescence in the absence of nitrate; and • Q is the quenched fluorescence.
The data was used to calculate Qmax and Kd based on the above equations.
as §1

In the next test the test system is nitrate reductase. To be noted: read-out: Michaelis constant (Km) of nitrate reduction; nitrate concentration at which the reaction is half maximal; cited from earlier work.

In general, Kd refers to the free concentration of one partner at which half of the binding sites on the other are occupied at equilibrium, for simple one-to-one binding. The term Km denotes the substrate concentration at which the rate is half of its maximum.

Each structure is given as a SMILES string. Like-named read-outs stand apart in the source and are kept apart here.

Consider `O=[N+]([O-])O` [nitrate], for which, in the test on FAD, the “type of fluorescence quenching of FAD by nitrate / interaction” value is “no specific interaction”. Further, the “type of fluorescence quenching of Mo-MPT by nitrate” value in test [1] (0 to 4 ppm nitrate, FIG. 10, data line 40) is “static quenching”. Further, the “Qmax (maximal quenching at infinite concentration of nitrate)” value in test [1] (fluorescence at 440 nm, FIG. 9, exceeds unity, believed to be an experimental artifact) came to 1.07. Further, the “lowest nitrate concentration at which quenching of the emission signal is observed” value in test [1] (nitrate added at 0.3 ppm to 3.4 ppm) was 0.3 ppm; in test [1] (same as 0.3 ppm) it was 23 µmol. For the same compound, in test [1] (read-out: Kd (nitrate affinity for the binding site, Mo-MPT), fluorescence at 440 nm, fit of Q=(Qmax[nitrate])/(Kd+[nitrate]), FIG. 9), the Kd came out at 20 µM. Also, the Michaelis-Menten constant (Km) with nitrate reductase is 13 µM.
